From patent publication US10039741B2, “Use of delta tocopherol for the treatment of lysosomal storage disorders” (The United States of America, as represented by the …, priority 2010, dated 2018)
“Also recorded” adds a separate entry of the source.

Tests used:
[1] = system: NPC patient-derived skin fibroblasts; assay: Amplex red cholesterol assay (free cholesterol); type: cell-based, human
Text: Free cholesterol accumulation in cells is a hallmark of NPC disease. The Amplex red cholesterol assay was used to screen an approved drug library in the NPC patient-derived skin fibroblasts that have free cholesterol accumulation in late endosome and lysosome. […] We then show δ-tocopherol in the filipin cholesterol staining assay, a method used clinically for NPCD diagnosis. […] Lysosome size is usually enlarged in the NPCD cells using a lysotracker staining assay.
The free cholesterol level in these cells was then measured by a cholesterol oxidase coupled HRP/amplex red detection method with a commercial available kit (Invitrogen). The cells were seeded to black, tissue culture-treated 1536-well plates (Greiner Bio-One, Monroe, N.C.) at 800 cells/well in 5 μl medium by a Multidrop Combi dispenser (Thermo Scientific, Waltham, Mass.) and cultured for 24 hours. The assay plates were added with 23 nl/well of compound DMSO solution using a pintool station (Kalypsys, San Diego, Calif.) and cultured for 3 days. The 1536-well assay plate was washed by a plate-inverted centrifugation method that removing medium by centrifuging plates upside down against a stack of paper towel at 1000 rpm for 1 min followed by addition of 7 μl/well PBS buffer, repeating for two times. The PBS buffer was added with a 45 degree angled dispenser (Kalypsys) or a Multi-Drop Combi dispenser set at medium speed to reduce disturbance to the cells. After the cell wash, 2.5 μl/well of detection mixture from the kit was added followed by 1 hour incubation at 37° C. With the addition of the detection mixture, the cells were lysed by the detergent containing buffer and free cholesterols in cell lysate were oxidized by cholesterol oxidase to produce H2O2 which reacting with amplex red dye in the presence of horseradish peroxidase to yield red fluorescence signal. A ViewLux plate reader (PerkinElmer, Boston, Mass.) was used to measure the fluorescent signal in assay plates with the excitation of 573 nm and emissions of 610 nm.

NPCD fibroblasts = assay: Lysotracker staining assay (lysosome size); type: cell-based, human
Description: Lysotracker is fluorescent dye that stains acidic compartments in live cells and is well-retained after aldehyde fixation. We have optimized a lysotracker staining assay to visualize the enlarged lysosome size in the NPC skin fibroblasts by applying appropriate concentration of lysotracker dye in comparison with these normal fibroblast cells. Cells were seeded at 8000 cells/well in 100 μl medium in a black/clear bottom, tissue culture treated plate and cultured overnight or in a dedicated time. The cells were live-stained with 100 u/well 50 nM Lysotracker Red-99 dye (Invitrogen) dissolved medium at 37° C. for 1 hr followed by two-times plate wash with PBS buffer using the plate-inverted centrifugation method. The plate was then added with 100 μl/well 3.2% formaldehyde and 1 μg/ml Hoechst 33342 (Invitrogen) in PBS and incubated at room temperature for 30 minutes. After three times of plate wash with PBS buffer, samples were stored at 4° C. until imaging. Samples were photographed using an IN Cell Analyzer 1000 (GE Healthcare) with a 20× objective equipped with CCD camera. DAPI filter and TRITC filter were used to visualize Hoechst and Lysotracker red, respectively. The images were processed by Adobe Photoshop.

NPC cells = type: cell-based, human
Description: We disclose that the compound's cytotoxicity could interfere with these cell-based assays that often appeared as the false positives for cholesterol reduction and lysosome size decrease. […] Although the tocotrienol effect on these NPCD cells were observed, they were more toxic in our assays and the additional compound purification (to 99%).
To measure the cytotoxicity of compounds, an ATP content assay was used with a commercial assay kit (ATP-Lite, PerkinElmer). Cells were seeded in white solid 1536-well plates and treated with compounds same as in the cholesterol oxidase assay describe above. After 3-day compound treatment, 3 μl/well detection mixture (prepared according to the manufacturer's instructions) was added to each well and the plates were incubated for 10 min at room temperature followed by a measurement using a Viewlux plate reader in a luminescence mode. The buffer in the detection mixture lyses cells and releases cellular ATP which reacts with luciferin in the presence of luciferase to produce light. The luminescence signal reduces if the cells are killed by the compound during the 3-day treatment.

[2] = system: Farber disease fibroblasts; assay: Lysotracker staining assay; type: cell-based, human
NPCD MSC cells [3] = assay: Lysosome size; type: cell-based, human
Description: (§1) The adipose mesenchymal stem cells (HMSC.AD-100, HMSC-NPC22 and HMSC-NPC23) were isolated from two NPC patients as well as one heath individual and provided by Celleng-tech (Coralville, Iowa). These cells were maintained in MSC expansion media (Celleng-tech, cat# HMSC.E.Media-450) supplemented with 10% FBS 100 unit/ml penicillin and 100 μg/ml streptomycin at 5% CO2, 37° C. For neural differentiation, cells were initially plated at 30% confluency (˜2500 cells/cm^2) using MSC expansion media. After 24 hours, MSC expansion media were withdrew. Cells were washed twice with Dulbecco's phosphate Buffer saline (Invitrogen) and incubated with neural differentiation media (Celleng-tech, cat# NEU.D.Media-450) supplemented with 10% FBS, 100 unit/ml penicillin and 100 μg/ml streptomycin at 5% CO2, 37° C. for additional 3 days.

neuron-like NPCD cells = assay: Lysosome size; type: cell-based, human; conditions: neuron-like cells differentiated from NPCD patient MSC
Description: as §1

NPCD MSC cells [4] = assay: Free cholesterol accumulation; type: cell-based, human
Description: as §1
MSC cells were seeded on coverslips on day 0 in MSC expansion medium. On day 1, cells were washed twice with warm PBS buffer and then incubated with MSC neuronal differentiation medium. On day 4, media were replaced with fresh neuronal differentiation medium. On day 6, cells were fixed with 3.2% paraformaldehyde in HBSS for 15 min. Immunocytochemistry for neuronal beta III tubulin and unesterified cholesterol (filipin staining) was performed as described. The coverslips were examined y a XXX microscope. […]

[5] = human plasma, physiological level; cited from earlier work
[6] = 9 additional fibroblast primary cells from different NPCD patients

In the case of `Cc1cc(O)cc2c1O[C@](C)(CCC[C@H](C)CCC[C@H](C)CCCC(C)C)CC2` [δ-tocopherol], the “effect compared with α-tocopherol” value [1, 6] is reported as “more potent than that of α-tocopherol”, the “effect on cholesterol reduction” value [1, 6] is reported as “confirmed” and the “cholesterol amount (cholesterol reduction)” value ([1]; NPCD fibroblasts) is reported as “significantly reduced”. The “potency compared with the other vitamin E isoforms” value ([1]; free cholesterol amount, filipin staining, lysotracker staining, NPCD fibroblasts) was “most potent of the eight isoforms of vitamin E; also recorded: more significant and potent than any of the other vitamin E isoforms”, the “effect compared with α-tocopherol” value ([1]; δ-tocopherol at 40 μM, NPC fibroblasts) was “more potent than α-tocopherol at 80 μM” and the “effect on lysosome size decrease” value (NPCD fibroblasts; [6]) was “confirmed”. For the same molecule, the enlarged lysosome size (NPCD fibroblasts; NPCD fibroblasts) was “decreased and shrunken to the size similar to the wild type cells”, the cytotoxicity (NPC cells) was “not present” and the “size of enlarged lysosomes” value [2] was “significantly reduced”. For the same molecule, the lysosome size (NPCD MSC cells [3]) was “decrease in lysosome size”, the lysosome size (neuron-like NPCD cells) was “decrease in lysosome size” and the accumulated free cholesterol (NPCD MSC cells [4]) was “reduction of accumulated free cholesterol”. The plasma concentration [5] was ~100 nM.
